Patent US20230092490A1, “PHARMACEUTICAL COMPOSITIONS COMPRISING DASATINIB ANHYDROUS AND USES THEREOF” (ZENTIVA K.S., priority 2020, published 2023)
Like-named read-outs stand apart in the source and are kept apart here.

How the values were obtained:
[1] = Oral bioavailability and pharmacokinetics of dasatinib monohydrate (background); conditions: human, in vivo, read-out: subjects exhibiting atypical pharmacokinetic profiles (reduced bioavailability, likely achlorhydria or hypochlorhydria)
[2] = pH 2.6; cited from earlier work
[3] = in vivo; cited from earlier work
[4] = cited from earlier work
[5] = Preliminary bioequivalence study of DA1 vs. RP in eighty healthy subjects; assay type: in vivo, human; conditions: total study population
Experimental: First, a preliminary bioequivalence study assessed in-vivo absorption of DA1 and RP. This bioequivalence study and its results are summarized in Example 2, below, and data are shown in FIG. 3 to FIG. 6 for four exemplary subjects A to D in that study.
Example 3, together with corresponding Table 4, presents additional results from the clinical study of Example 2, comparing the bioavailability of DA1 vs RP.
A preliminary bioequivalence study in eighty (80) healthy subjects was conducted to test the in-vivo absorption of RP and DA1.
Additional data from the bioequivalence study of Example 2, which compared the bioequivalence of DA1 against the reference product (“RP”) are summarised in Table 4 below.

[6] = administered 10 hours following the H2 antagonist famotidine
[7] = co-administration with aluminium hydroxide or magnesium hydroxide
[8] = single 100 mg dose 22 hours following a 4-day 40-mg omeprazole dose at steady state

SMILES	percentage of subjects with atypical pharmacokinetic profiles [1] [%]	thermodynamic (equilibrium) solubility [2] [mg/mL]	time at which peak concentration is reached [3] [h]	reduction of AUC [4, 6] [%]	reduction of Cmax [4, 6] [%]	reduction in Cmax [4, 7] [%]	reduction of the area under the curve (AUC) [4, 7] [%]	reduction of AUC [4, 8] [%]	reduction of Cmax [4, 8] [%]	absorption across all subjects [5]
Cc1nc(Nc2ncc(C(=O)Nc3c(C)cccc3Cl)s2)cc(N2CCN(CCO)CC2)n1 [dasatinib monohydrate, N-(2-chloro-6-methylphenyl)-2-[[6-[4-(2-hydroxyethyl)-1-piperazinyl]-2-methyl-4-pyrimidinyl]amino]-5-thiazolecarboxamide]	3.5 to 7.5	18.4	1 to 2	61	63	58	55	43	42	
Cc1nc(Nc2ncc(C(=O)Nc3c(C)cccc3Cl)s2)cc(N2CCN(CCO)CC2)n1 [Dasatinib anhydrous, N-(2-chloro-6-methylphenyl)-2-[[6-[4-(2-hydroxyethyl)-1-piperazinyl]-2-methyl-4-pyrimidinyl]amino]-5-thiazolecarboxamide]										absorbed in all subjects
